Assay results taken from patent US9365541B2, “Compounds for use in the treatment of parasitic diseases” (IRBM—SCIENCE PARK S.P.A., priority 2012, dated 2016).
pEC50, pIC50: −log10 of the molar value.

Experiments:
[1] = test system: Plasmodium falciparum 3D7; assay: P. falciparum growth inhibition assay (Pf-LDH); type: cell-based; details: Plasmodium falciparum, Erythrocyte; P. falciparum 3D7 infected erythrocytes, 72 h incubation, PfLDH readout
Procedure, shortened: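 P. falciparum 3D7 (chloroquine-sensitive) at 0.25% parasitemia and 2% hematocrit was incubated with compound for 72 h at 37° C under 4% CO2/3% O2/93% N2. After freeze-thaw, PfLDH activity was read at 650 nm with lactate/APAD/NBT/diaphorase mix (pH 8.0).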

human HDAC1 = target: T1, human HDAC1 (Homo sapiens, UniProt Q13547); assay: Homo sapiens HDAC1 inhibition assay (Fluor-de-Lys, enzymatic); type: biochemical; details: human HDAC enzymatic assay; read-out: hHDAC IC50
T1 construct: made in house; host or cells: HeLa (ATCC CCL-2), mammalian cells
Procedure, shortened: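 Product developed with trypsin developer containing 2 μM TSA to stop the reaction; fluorescence measures deacetylase activity, inversely related to inhibition.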

T1 sequence (Q13547 whole entry): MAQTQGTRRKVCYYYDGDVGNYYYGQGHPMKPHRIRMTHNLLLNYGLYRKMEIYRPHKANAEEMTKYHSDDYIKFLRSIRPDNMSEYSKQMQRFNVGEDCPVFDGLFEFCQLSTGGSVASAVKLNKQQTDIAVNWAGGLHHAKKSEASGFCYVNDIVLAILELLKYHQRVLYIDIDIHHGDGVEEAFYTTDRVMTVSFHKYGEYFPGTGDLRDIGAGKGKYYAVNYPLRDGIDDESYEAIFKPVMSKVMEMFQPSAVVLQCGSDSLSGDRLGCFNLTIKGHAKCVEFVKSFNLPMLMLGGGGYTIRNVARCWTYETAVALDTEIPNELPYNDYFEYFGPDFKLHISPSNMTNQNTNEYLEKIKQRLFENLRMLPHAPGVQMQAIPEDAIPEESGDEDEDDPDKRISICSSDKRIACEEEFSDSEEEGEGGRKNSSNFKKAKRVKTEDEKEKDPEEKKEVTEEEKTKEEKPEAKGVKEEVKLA

| pEC50 [1] | pIC50 (human HDAC1) | SMILES |
| --- | --- | --- |
| 5.30 to 6.00 | 5.30 to 6.00 | CNC(=O)CCCCC[C@H](NC(=O)Cn1ccnn1)c1ncc(-c2ccc3ccncc3c2)[nH]1 [Entry 58, (S)-7-(2-(1H-1,2,3-triazol-1-yl)acetamido)-7-(5-(isoquinolin-7-yl)-1H-imidazol-2-yl)-N-methylheptanamide] |
| 5.30 to 6.00 | 5.30 to 6.00 | CNC(=O)CCCCC[C@H](NC(=O)c1cncs1)c1ncc(-c2ccc(-c3cc(C)[nH]n3)cc2)[nH]1 [Entry 59, (S)-N-(1-(5-(4-(5-methyl-1H-pyrazol-3-yl)phenyl)-1H-imidazol-2-yl)-7-(methylamino)-7-oxoheptyl)thiazole-5-carboxamide] |
| < 5.30 | 5.30 to 6.00 | CNC(=O)CCCCC[C@H](NC(=O)c1cncs1)c1ncc(-c2ccc(CN)cc2)[nH]1 [Entry 60, (S)-N-(1-(5-(4-(amino-methyl)phenyl)-1H-imidazol-2-yl)-7-(methylamino)-7-oxoheptyl)thiazole-5-carboxamide] |
| 5.30 to 6.00 | 5.30 to 6.00 | CNC(=O)CCCCC[C@H](NC(=O)C1CC(=O)Nc2ccccc21)c1ncc(-c2ccc(-n3cccn3)cc2)[nH]1 (stereo partly drawn) [Entry 61, N-((S)-1-(5-(4-(1H-pyrazol-1-yl)phenyl)-1H-imidazol-2-yl)-7-(methylamino)-7-oxoheptyl)-2-oxo-1,2,3,4-tetrahydroquinoline-4-carboxamide] |
| < 5.30 | < 5.30 | CNC(=O)CCCCC[C@H](NC(=O)Cn1ccnn1)c1ncc(-c2ccc(-n3cccn3)cc2)[nH]1 [Entry 62, (S)-7-(2-(1H-1,2,3-triazol-1-yl)acetamido)-7-(5-(4-(1H-pyrazol-1-yl)phenyl)-1H-imidazol-2-yl)-N-methylheptanamide] |
| 5.30 to 6.00 | 5.30 to 6.00 | CNC(=O)CCCCC[C@H](NC(=O)Cc1nc(-c2ccccc2)cs1)c1ncc(-c2ccc3ccccc3c2)[nH]1 [Entry 63] |
| 5.30 to 6.00 | < 5.30 | CNC(=O)CCCCC[C@H](NC(=O)c1cccc(N2CCOCC2)c1)c1ncc(-c2ccc3ccccc3c2)[nH]1 [Entry 64, (S)-N-(7-(methylamino)-1-(5-(naphthalen-2-yl)-1H-imidazol-2-yl)-7-oxoheptyl)-3-morpholino-benzamide] |
| > 6.00 | > 6.00 | CNC(=O)CCCCC[C@H](NC(=O)c1cnc(CN2CCCC2)s1)c1ncc(-c2ccc3ccncc3c2)[nH]1 [Entry 65, (S)-N-(1-(5-(isoquinolin-7-yl)-1H-imidazol-2-yl)-7-(methylamino)-7-oxoheptyl)-2-(pyrrolidin-1-ylmethyl)thiazole-5-carboxamide] |
| < 5.30 | 5.30 to 6.00 | CNC(=O)CCCCC[C@H](NC(=O)CN1CCCC1)c1ncc(-c2ccc3ccncc3c2)[nH]1 [Entry 66] |
| > 6.00 | > 6.00 | CNC(=O)CCCCC[C@H](NC(=O)c1ccns1)c1ncc(-c2ccc3ccncc3c2)[nH]1 [Entry 67] |
| < 5.30 | 5.30 to 6.00 | CNC(=O)CCCCC[C@H](NC(=O)Cc1nc(C)cs1)c1ncc(-c2ccc3ccncc3c2)[nH]1 [Entry 68] |
| < 5.30 | < 5.30 | CNC(=O)CCCCC[C@H](NC(=O)Cn1ccnn1)c1ncc(-c2ccc(-c3ccn(C)n3)cc2)[nH]1 [Entry 69, (S)-7-(2-(1H-1,2,3-triazol-1-yl)acetamido)-N-methyl-7-(5-(4-(1-methyl-1H-pyrazol-3-yl)phenyl)-1H-imidazol-2-yl)heptanamide] |
| > 6.00 | > 6.00 | COc1ccc2[nH]c(C)c(CC(=O)N[C@@H](CCCCCC(N)=O)c3nnc(-c4ccc5ccccc5c4)[nH]3)c2c1 [Entry 70, (S)-7-(2-(5-methoxy-2-methyl-1H-indol-3-yl)acetamido)-7-(5-(naphthalen-2-yl)-4H-1,2,4-triazol-3-yl)heptanamide] |
| > 6.00 | > 6.00 | CNC(=O)CCCCC[C@H](NC(=O)C1CN(C)C1)c1ncc(-c2cc3ccccc3nc2OC)o1 [Entry 71, (S)-N-(1-(5-(2-methoxyquinolin-3-yl)oxazol-2-yl)-7-(methylamino)-7-oxoheptyl)-1-methylazetidine-3-carboxamide] |
| 5.30 to 6.00 | > 6.00 | CNC(=O)CCCCC[C@H](NC(=O)OCc1ccccc1)c1ncc(-c2ccc3ccccc3c2)[nH]1 [Entry 72, (S)-benzyl (7-(methylamino)-1-(5-(naphthalen-2-yl)-1H-imidazol-2-yl)-7-oxo-heptyl)carbamate] |
| 5.30 to 6.00 | 5.30 to 6.00 | CNC(=O)CCCCC[C@H](NC(=O)c1cc2cc(OC)ccc2[nH]1)c1ncc(-c2ccc3ccccc3c2)[nH]1 [Entry 73, (S)-5-methoxy-N-(7-(methylamino)-1-(5-(naphthalen-2-yl)-1H-imidazol-2-yl)-7-oxoheptyl)-1H-indole-2-carboxamide] |

| pEC50 [1] | pIC50 (human HDAC1) | SMILES |
| --- | --- | --- |
| 5.30 to 6.00 | > 6.00 | CNC(=O)CCCCC[C@H](NC(=O)Cn1c(=O)oc2ccccc21)c1ncc(-c2ccc3ccccc3c2)[nH]1 [Entry 74] |
| > 6.00 | > 6.00 | CNC(=O)CCCCC[C@H](NC(=O)Cc1c(C)[nH]c2ccc(OC)cc12)c1ncc(-c2ccc3ccccc3c2)[nH]1 [Entry 75, (S)-7-(2-(5-methoxy-2-methyl-1H-indol-3-yl)acetamido)-N-methyl-7-(5-(naphthalen-2-yl)-1H-imidazol-2-yl)heptanamide] |
| 5.30 to 6.00 | 5.30 to 6.00 | CNC(=O)CCCCC[C@H](NC(=O)Cc1cnccn1)c1ncc(-c2cc3ccccc3nc2OC)[nH]1 [Entry 76] |
| 5.30 to 6.00 | 5.30 to 6.00 | CNC(=O)CCCCC[C@H](NC(=O)c1nnc(C)o1)c1ncc(-c2cc3ccccc3nc2OC)[nH]1 [Entry 77, (S)-N-(1-(5-(2-methoxyquinolin-3-yl)-1H-imidazol-2-yl)-7-(methylamino)-7-oxoheptyl)-5-methyl-1,3,4-oxadiazole-2-carboxamide] |
| < 5.30 | 5.30 to 6.00 | CNC(=O)CCCCC[C@H](NC(=O)c1cncs1)c1ncc(-c2ccc(CN(C)C)cc2)[nH]1 [Entry 78, (S)-N-(1-(5-(4-((dimethyl-amino)methyl)phenyl)-1H-imidazol-2-yl)-7-(methylamino)-7-oxoheptyl)thiazole-5-carboxamide] |
| < 5.30 | 5.30 to 6.00 | CNC(=O)CCCCC[C@H](NC(=O)c1cncs1)c1ncc(-c2cccc3c2OCCO3)[nH]1 [Entry 79] |
| 5.30 to 6.00 | 5.30 to 6.00 | CNC(=O)CCCCC[C@H](NC(=O)c1cncs1)c1ncc(-c2cc3ccccc3nc2Cl)[nH]1 [Entry 80, (S)-N-(1-(5-(2-chloroquinolin-3-yl)-1H-imidazol-2-yl)-7-(methylamino)-7-oxoheptyl)thiazole-5-carboxamide] |
| < 5.30 | < 5.30 | CNC(=O)CCCCC[C@H](NC(=O)c1cncs1)c1ncc(-c2ccc(-n3nc(C)cc3C)cc2)[nH]1 [Entry 81, (S)-N-(1-(5-(4-(3,5-dimethyl-1H-pyrazol-1-yl)phenyl)-1H-imidazol-2-yl)-7-(methylamino)-7-oxoheptyl)thiazole-5-carboxamide] |
| < 5.30 | < 5.30 | CNC(=O)CCCCC[C@H](NC(=O)c1cc(C)n(-c2ccccc2)n1)c1ncc(-c2ccc3ccccc3c2)[nH]1 [Entry 82, (S)-5-methyl-N-(7-(methylamino)-1-(5-(naphthalen-2-yl)-1H-imidazol-2-yl)-7-oxoheptyl)-1-phenyl-1H-pyrazole-3-carboxamide] |
| 5.30 to 6.00 | 5.30 to 6.00 | CNC(=O)CCCCC[C@H](NC(=O)c1ccc(-n2cccc2)nc1)c1ncc(-c2ccc3ccccc3c2)[nH]1 [Entry 83, (S)-N-(7-(methylamino)-1-(5-(naphthalen-2-yl)-1H-imidazol-2-yl)-7-oxoheptyl)-6-(1H-pyrrol-1-yl)nicotinamide] |
| < 5.30 | 5.30 to 6.00 | CNC(=O)CCCCC[C@H](NC(=O)c1nnc(C)s1)c1ncc(-c2ccc3ccccc3c2)[nH]1 [Entry 84, (S)-5-methyl-N-(7-(methylamino)-1-(5-(naphthalen-2-yl)-1H-imidazol-2-yl)-7-oxoheptyl)-1,3,4-thiadiazole-2-carboxamide] |
| 5.30 to 6.00 | 5.30 to 6.00 | CNC(=O)CCCCC[C@H](NC(=O)C(C)n1cccn1)c1ncc(-c2ccc3ccccc3c2)[nH]1 (stereo partly drawn) [Entry 85, (7S)-7-(2-(1H-pyrazol-1-yl)propanamido)-N-methyl-7-(5-(naphthalen-2-yl)-1H-imidazol-2-yl)heptanamide] |
| 5.30 to 6.00 | 5.30 to 6.00 | CNC(=O)CCCCC[C@H](NC(=O)c1cc(-c2ccco2)n[nH]1)c1ncc(-c2ccc3ccccc3c2)[nH]1 [Entry 86, (S)-3-(furan-2-yl)-N-(7-(methylamino)-1-(5-(naphthalen-2-yl)-1H-imidazol-2-yl)-7-oxoheptyl)-1H-pyrazole-5-carboxamide] |
| 5.30 to 6.00 | 5.30 to 6.00 | CNC(=O)CCCCC[C@H](NC(=O)c1ccccc1-n1cnnn1)c1ncc(-c2ccc3ccccc3c2)[nH]1 [Entry 87, (S)-N-(7-(methylamino)-1-(5-(naphthalen-2-yl)-1H-imidazol-2-yl)-7-oxoheptyl)-2-(1H-tetrazol-1-yl)benzamide] |
| < 5.30 | < 5.30 | CNC(=O)CCCCC[C@H](NC(=O)c1cccc2nccnc12)c1ncc(-c2ccc3ccccc3c2)[nH]1 [Entry 88, (S)-N-(7-(methylamino)-1-(5-(naphthalen-2-yl)-1H-imidazol-2-yl)-7-oxo-heptyl)quinoxaline-5-carboxamide] |
| 5.30 to 6.00 | 5.30 to 6.00 | CNC(=O)CCCCC[C@H](NC(=O)Cn1cncn1)c1ncc(-c2ccc3ccncc3c2)[nH]1 [Entry 89, (S)-7-(2-(1H-1,2,4-triazol-1-yl)acetamido)-7-(5-(isoquinolin-7-yl)-1H-imidazol-2-yl)-N-methylheptanamide] |
